# Reference: patent US12629359B2 (UNIVERSITA' DEGLI STUDI DI BRESCIA, priority 2020, dated 2026)
# “Also recorded” adds a separate entry of the source.
# System: alpha-synuclein aggregation in SK—N—SH cells
# Assay: Alpha-synuclein aggregation after glucose deprivation in SK-N-SH alpha-synuclein stable clones (immunocytochemistry)
# Format: cell-based, human
# Protocol: Human neuroblastoma SK—N—SH full length (fl) alpha-synuclein stable clones were seeded onto poly-D-lysine-coated glass coverslides in 24-well plates and were grown in complete medium comprising Dulbecco's modified Eagle's medium with 1000 mg glucose/l supplemented with 10% heat-inactivated fetal bovine serum, 100 μg/ml penicillin and 100 μg/ml streptomycin. Cells were maintained at 37° C. under a humidified atmosphere of 5% CO2 and […]. At 80% confluence, cells underwent glucose deprivation (GD) in order to induce alpha-synuclein aggregation (Bellucci, A.; et al. Journal of neurochemistry 2008, 106, 560-577). Briefly, GD was performed through an incubation of the cells with Hank's balanced salt solution supplemented with 2 mM glutamine and 10% heat-inactivated fetal bovine serum, for 1 h at 37° C. […] After 24 h of treatment, cells were fixed by incubating for 15 min in 4% paraformaldehyde with 4% sucrose in 1 M PBS, pH 7.4. The fixed cells were then stored in PBS-containing 0.05% sodium azide. Slides were incubated for 1 h at room temperature in blocking solution [2% w/v bovine serum albumin (BSA) plus 3% v/v normal goat serum in PBS], then overnight at 4° C. with the primary antibody (Syn211 antibody against alpha-synuclein) at the optimal working dilution. On the following day, cells were incubated for 1 h at room temperature with the Cy3-conjugated secondary antibody diluted in 0.1% Triton X-100 PBS plus BSA 1 mg/ml. Finally, cell nuclei were counterstained with Hoechst 33258 dye, and the coverslips were mounted onto glass slides using Vectashield.
structure (smiles),measurement,setting,value
"COC(=O)[C@@H](c1ccc(C)cc1)C1CCCCN1.Cl (stereo partly drawn) [I-threo, threo methyl 2-(piperidin-2-yl)-2-(p-tolyl)acetate hydrochloride]",alpha-synuclein aggregates seen in images after GD,"10 μM, 24 h, vs non-treated (NT) cells, preliminary",no aggregates were observed
same,formation of alpha-synuclein inclusions after GD (immunofluorescence intensity and average particle size),"10 μM, 24 h after 1 h glucose deprivation, vs untreated, hydrochloride",significantly reduce the formation of alpha-synuclein inclusions; also recorded: significantly reduce alpha-synuclein aggregation in vitro
same,EC50,"Homo sapiens, SK-N-SH cells, read-out: EC50 in reducing alpha-synuclein aggregation",431 nM
same,"efficacy (% effect) in reducing alpha-synuclein aggregation, compared with MPH",SK-N-SH cells,almost comparable
same,EC50 fold lower than that of MPH,"SK-N-SH cells, I-threo vs MPH",200 fold
